# Laboratory results published in patent US9757379B2, “Inhibition of HIF-2α heterodimerization with HIF1β (ARNT)” (The Board of Regents of the University of Texas System, priority 2012, dated 2017).
# Read-outs that look alike come from different tables or passages of the source.
# Columns and labels:
# HIF-2α PAS-B = HIF-2α PAS-B (Homo sapiens, UniProt Q99814); experiment: Isothermal titration calorimetry (ITC) on HIF-2α PAS-B;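 note: Wild-type protein (200 µM) titrated into 5-10 µM compound, heats of dilution from a compound-free titration subtracted, isotherms fit to a single-site model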
# Description: ITC, as described more fully below, introduces a wild-type HIF-2α PAS-B solution into a to-be-assayed compound solution using, for example, a VP-ITC instrument (MicroCal). After subtracting heats of dilution evolved from the titrating protein, e.g., wild-type HIF-2α PAS-B, into a compound-free buffer, data were fit to a single-site binding model with, for example, MicroCal Origin® software to determine complex affinities.
# The following is a general procedure describing the ITC assay Thermodynamic parameters of small molecule binding are determined using a MicroCal VP-ITC calorimeter. Solutions of HIF-2α PAS-B are extensively dialyzed against buffer (50 mM Tris (pH 7.5), 20 mM NaCl and 5 mM beta-mercaptoethanol), which is subsequently used to prepare a matched compound solution by dilution from a 50 mM compound stock in 100% DMSO. […] Each isotherm is recorded by injecting 200 μM protein (syringe) into 5-10 μM solutions of compound (cell), accounting for dilution heats by subtracting data from a control titration of 200 μM protein into a matched buffer-DMSO solution. Thermograms are fit to a single site binding model to extract equilibrium binding parameters.
# [1] = target: HIF-2α PAS-B*/ARNT PAS-B* heterodimer (Homo sapiens, UniProt Q99814, R247E); experiment: AlphaScreen, HIF-2α PAS-B*/ARNT PAS-B* heterodimerization;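 note: GST-tagged HIF-2α PAS-B* and FLAG-tagged ARNT PAS-B* with glutathione donor and anti-FLAG acceptor beads, luminescence after 680 nm excitation, loss of signal indicating disrupted heterodimer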
# Description: (FIG. 8a) As shown in the cartoon schematic, interactions between GST-tagged HIF-2α (green) and FLAG-tagged ARNT (blue) PAS-B* domains recruit both donor beads (D), coated with glutathione, and acceptor beads (A), coated with anti-FLAG antibodies, to one another. Upon illumination with red (680 nm) light, donor beads will generate short-lived singlet oxygen (^1O2). Nearby (<200 nm) acceptor beads can react with ^1O2 to emit light at shorter wavelengths (top). Compounds that disrupt the complex correspondingly eliminate this signal (bottom). Compounds that non-specifically interfere with the AlphaScreen assay can be identified with a counterscreen in which the ARNT PAS-B* domain was simultaneously tagged with both the GST and FLAG tags. (FIG. 8b) The AlphaScreen signal (relative units; RU) reflecting protein-protein interactions between 25 (open triangles), 50 (open circles) or 100 (closed circles) nM HIF-2α PAS-B* increases with increasing concentrations of ARNT PAS-B*. At the highest ARNT PAS-B* concentrations, a decrease in signal reflects the hook effect. At these concentrations, protein binding to the acceptor beads has become saturated and free ARNT PAS-B* competes with the coated acceptor beads for the donor beads bound to HIF-2α PAS-B*. […] Assays were performed in triplicate and the error bars represent±SD.
# Inhibition of heterodimerization of HIF-2α to HIF1β (ARNT) may be determined in an Amplified Luminescent Proximity Homogeneous Assay (AlphaScreen).
# The AlphaScreen assay can be done according to the following procedures: • 1. Prepare cold binding buffer solution: 20 mM Tris-Cl (pH=7.5), 100 mM NaCl, 1 mM DTT, 0.02% Tween-20 (final concentration) and place on ice to keep temperature approximately 4° C. • 2. Prepare Protein Mix: To a 50 mL conical tube add 23 mL of cold buffer and 0.04 mL of both GST-HIF2α PASB* (100 μM) and ARNT-PASB*-Flag (100 μM). • 3. Distribute to 96 well plate: Add 60 μL of protein mix to each wells. • 4. Adding Compound: Dissolve compounds in DMSO to obtain a final concentration of 10 mM. Then create the appropriate dilutions for your particular compound in glass vials. Once all the dilutions are ready place 1 μL of compound in each well. • 5. Prepare Bead mix: In the dark room using green light only create a tube with 3.84 mL of cold buffer and 3 μL of GST Donor beads and Flag acceptor beads. • 6. Distribute Bead mix: Invert the tube a couple times before distributing 40 μL of mix to each well. • 7. Incubation: After adding beads wrap the plate in tin foil twice and remove the covered plate from dark room. Incubate the plate at room temperature while rocking gently for 4 hours. • 8. Read: After 4 hours place the uncovered plate in the plate reader. Make sure the room is relatively tree of white light when placing the plate in the machine. It is ok to have the green light on if needed. • 9. […] Flag acceptor beads should be aliquoted into small opaque tubes (20-50 μl per tube) upon arrival from the manufacturer. Place both sets of beads in 4° C. storage when not in use. • 11. Avoid expose beads to white light. • 12. Pipette beads up and down several times before adding to a tube of cold buffer solution. • 13. Amount of Beads used for Bead mix may vary from batch to batch.
# GST-ARNT-PAS-B*-FLAG = GST-ARNT-PAS-B*-FLAG (Homo sapiens, UniProt P27540, E362R); experiment: AlphaScreen control reaction with doubly tagged protein; type: biochemical; settings: single doubly tagged protein
# Description: Upon illumination with red (680 nm) light, donor beads will generate short-lived singlet oxygen (^1O2). Nearby (<200 nm) acceptor beads can react with ^1O2 to emit light at shorter wavelengths (top). Compounds that disrupt the complex correspondingly eliminate this signal (bottom). Compounds that non-specifically interfere with the AlphaScreen assay can be identified with a counterscreen in which the ARNT PAS-B* domain was simultaneously tagged with both the GST and FLAG tags. […] At these concentrations, protein binding to the acceptor beads has become saturated and free ARNT PAS-B* competes with the coated acceptor beads for the donor beads bound to HIF-2α PAS-B*. […] Assays were performed in triplicate and the error bars represent±SD.
# VEGF = VEGF protein secretion by ELISA, 786-O cells; type: cell-based, human; settings: about 18 hours, 0.00655-20 μM
# Description: VEGF protein secretion was measured by ELISA following incubation of cultured 786-O cells for about eighteen (18) hours with Compund (1) (FIG. 19a) or with Compound (47) (FIG. 19b).
# Sequence of HIF-2α PAS-B*/ARNT PAS-B* heterodimer (Q99814 240-350 R247E, one chain of several): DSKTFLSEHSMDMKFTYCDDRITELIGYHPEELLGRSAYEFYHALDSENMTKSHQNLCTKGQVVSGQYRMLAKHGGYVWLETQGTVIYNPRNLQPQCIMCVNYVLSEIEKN
# Sequence of HIF-2α PAS-B (Q99814 240-350): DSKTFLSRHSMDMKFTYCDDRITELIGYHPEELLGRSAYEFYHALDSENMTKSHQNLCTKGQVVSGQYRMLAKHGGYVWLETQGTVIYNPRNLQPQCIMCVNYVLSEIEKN
# Sequence of GST-ARNT-PAS-B*-FLAG (P27540 355-470 E362R): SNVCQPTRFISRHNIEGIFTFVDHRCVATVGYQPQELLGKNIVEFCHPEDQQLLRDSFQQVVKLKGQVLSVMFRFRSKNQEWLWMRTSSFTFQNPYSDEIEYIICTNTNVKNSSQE
Kd (HIF-2α PAS-B),IC50 [1],SMILES,also measured
4.3 µM,–,O=[N+]([O-])c1ccccc1Nc1cc(F)cc(Cl)c1 (racemic) [Compound 33],–
0.76 µM,0.7 µM,"Fc1ccccc1[C@@H]1C[C@H](c2cccc(Br)c2)Nc2nnnn21 (racemic) [Compound 50, (+/−)-(cis)-5-(3-bromophenyl)-7-(2-fluorophenyl)-4,5,6,7-tetrahydrotetrazolo[1,5-a]pyrimidine]",–
0.435 µM,0.3 µM,"Clc1ccccc1[C@@H]1C[C@H](c2cccc(Br)c2)Nc2nnnn21 (racemic) [Compound 51, (+/−)-(cis)-5-(3-bromophenyl)-7-(2-chlorophenyl)-4,5,6,7-tetrahydrotetrazolo[1,5-a]pyrimidine]",–
0.565 µM,0.2 µM,"Brc1cccc([C@H]2C[C@@H](c3ccccc3Br)n3nnnc3N2)c1 (racemic) [Compound 54, (+/−)-(cis)-7-(2-bromophenyl)-5-(3-bromophenyl)-4,5,6,7-tetrahydrotetrazolo[1,5-a]pyrimidine]",–
0.862 µM,0.6 µM,"Brc1cccc([C@H]2C[C@@H](c3ccccc3I)n3nnnc3N2)c1 (racemic) [Compound 55, (+/−)-(cis)-5-(3-bromophenyl)-7-(2-iodophenyl)-4,5,6,7-tetrahydrotetrazolo[1,5-a]pyrimidine]",–
0.106 µM,0.2 µM,"Clc1cccc([C@@H]2C[C@H](c3cccc(Br)c3)Nc3nnnn32)c1 (racemic) [Compound 56, (+/−)-(cis)-5-(3-bromophenyl)-7-(3-chlorophenyl)-4,5,6,7-tetrahydrotetrazolo[1,5-a]pyrimidine]",–
0.042 µM,0.2 µM,"Fc1c(Cl)cccc1[C@@H]1C[C@H](c2cccc(Br)c2)Nc2nnnn21 (racemic) [Compound 59, (+/−)-(cis)-5-(3-bromophenyl)-7-(3-chloro-2-fluorophenyl)-4,5,6,7-tetrahydrotetrazolo[1,5-a]pyrimidine]",–
0.032 µM,0.2 µM,"Fc1ccc(Cl)c(F)c1[C@@H]1C[C@H](c2cccc(Br)c2)Nc2nnnn21 (racemic) [Compound 61, (+/−)-(cis)-5-(3-bromophenyl)-7-(3-chloro-2,6-difluorophenyl)-4,5,6,7-tetrahydrotetrazolo[1,5-a]pyrimidine]",–
0.93 µM,–,"CC(C)C[C@@H]1C[C@H](c2cccc(Br)c2)Nc2nnnn21 (racemic) [Compound 64, (+/−)-(cis)-5-(3-bromophenyl)-7-isobutyl-4,5,6,7-tetrahydrotetrazolo[1,5-a]pyrimidine]",–
0.52 µM,> 30 µM,"O=[N+]([O-])c1c(NCc2ccc(F)cc2C(F)(F)F)ccc2nonc12 [Compound 4, N-(4-fluoro-2-(trifluoromethyl)benzyl)-4-nitrobenzo[c][1,2,5]oxadiazol-5-amine]",–
0.22 µM,0.15 µM,O=[N+]([O-])c1c(Nc2ccc(Br)c(F)c2)ccc2nonc12 [Compound 7],–
0.26 µM,0.09 µM,"O=[N+]([O-])c1c(Nc2ccc(Cl)c(C(F)(F)F)c2)ccc2nonc12 [Compound 9, N-(4-chloro-3-(trifluoromethyl)phenyl)-4-nitrobenzo[c][1,2,5]oxadiazol-5-amine]",–
2.1 µM,> 1 µM,"O=[N+]([O-])c1c(Nc2cc(F)cc(F)c2)ccc2nonc12 [Compound 11, N-(3,5-difluorophenyl)-4-nitrobenzo[c][1,2,5]oxadiazol-5-amine]",–
–,> 10 µM,Cc1ccc(CNc2ccc3nonc3c2[N+](=O)[O-])cc1 [Compound 18],–
–,> 5 µM,O=[N+]([O-])c1c(NCc2ccc(Cl)cc2)ccc2nonc12 [Compound 19],–
–,–,O=[N+]([O-])c1c(NCc2cc(F)cc(Cl)c2)ccc2nonc12 [Compound 21],Kd (HIF-2α PAS-B; read-out: ITC Kd): 2 µM

Kd (HIF-2α PAS-B),IC50 [1],SMILES,also measured
–,> 30 µM,O=[N+]([O-])c1c(NCc2cc(F)ccc2C(F)(F)F)ccc2nonc12 [Compound 22],–
–,> 10 µM,COc1cccc(Nc2ccc3nonc3c2[N+](=O)[O-])c1 [Compound 23],–
4.3 µM,–,O=[N+]([O-])c1cccc(Nc2ccc3nonc3c2[N+](=O)[O-])c1 [Compound 27],–
2.1 µM,–,O=[N+]([O-])c1c(Nc2cccc(F)c2)ccc2nonc12 [Compound 28],–
–,> 10 µM,O=[N+]([O-])c1c(Nc2cc(F)cc(Cl)c2)ccc2nn[nH]c12 [Compound 34],–
~3 µM,–,Fc1cc(Cl)cc(Nc2ccc3nonc3c2)c1 [Compound 38],–
~6 µM,> 30 µM,Nc1c(Nc2cc(F)cc(Cl)c2)ccc2nonc12 [Compound 39],–
–,–,CNS(=O)(=O)c1c(Nc2cc(F)cc(Cl)c2)ccc2nonc12 [Compound 43],Kd (HIF-2α PAS-B; read-out: ITC Kd): 5 µM
–,–,CN(C)S(=O)(=O)c1c(Nc2cc(F)cc(Cl)c2)ccc2nonc12 [Compound 44],Kd (HIF-2α PAS-B; read-out: ITC Kd): 5 µM
0.268 µM,0.35 µM,"Fc1cc(Br)cc([C@@H]2C[C@H](c3ccccc3)n3nnnc3N2)c1 [Compound 49, (5S,7R)-5-(3-bromo-5-fluorophenyl)-7-phenyl-4,5,6,7-tetrahydrotetrazolo[1,5-a]pyrimidine]",–
0.337 µM,0.3 µM,"Clc1ccccc1[C@H]1C[C@@H](c2cccc(Br)c2)Nc2nnnn21 [Compound 52, (5S,7R)-5-(3-bromophenyl)-7-(2-chlorophenyl)-4,5,6,7-tetrahydrotetrazolo[1,5-a]pyrimidine]",–
0.133 µM,0.15 µM,Clc1cccc([C@H]2C[C@@H](c3cccc(Br)c3)Nc3nnnn32)c1 [Compound 57],–
0.089 µM,0.1 µM,"Brc1cccc([C@@H]2C[C@H](c3cccc(Br)c3)n3nnnc3N2)c1 [Compound 58, (5S,7R)-5,7-bis(3-bromophenyl)-4,5,6,7-tetrahydrotetrazolo[1,5-a]pyrimidine]",–
0.192 µM,0.4 µM,"Clc1ccc(Br)cc1[C@H]1C[C@@H](c2cccc(Br)c2)Nc2nnnn21 [Compound 60, (5S,7R)-7-(5-bromo-2-chlorophenyl)-5-(3-bromophenyl)-4,5,6,7-tetrahydrotetrazolo[1,5-a]pyrimidine]",–
0.044 µM,< 0.1 µM,"Fc1ccc(Br)c(F)c1[C@H]1C[C@@H](c2cccc(Br)c2)Nc2nnnn21 [Compound 62, (5S,7R)-7-(3-bromo-2,6-difluorophenyl)-5-(3-bromophenyl)-4,5,6,7-tetrahydrotetrazolo[1,5-a]pyrimidine]",–
0.031 µM,< 0.01 µM,"Fc1c(Br)ccc(Br)c1[C@H]1C[C@@H](c2cccc(Br)c2)Nc2nnnn21 [Compound 63, (5S,7R)-5-(3-bromophenyl)-7-(3,6-dibromo-2-fluorophenyl)-4,5,6,7-tetrahydrotetrazolo[1,5-a]pyrimidine]",–

SMILES,Kd (HIF-2α PAS-B),IC50 [1],also measured
"O=[N+]([O-])c1c(NCc2ccc(F)cc2Cl)ccc2nonc12 [Compound 2, N-(2-chloro-4-fluorobenzyl)-4-nitrobenzo[c][1,2,5]oxadiazol-5-amine]",–,0.33 µM,Kd (HIF-2α PAS-B; read-out: ITC Kd): 0.5 µM
"O=[N+]([O-])c1c(NCc2cc(F)ccc2F)ccc2nonc12 [Compound 3, N-(2,5-difluorobenzyl)-4-nitrobenzo[c][1,2,5]oxadiazol-5-amine]",> 10 µM,> 10 µM,–
"O=[N+]([O-])c1c(Nc2cccc(Cl)c2)ccc2nonc12 [Compound 5, N-(3-chlorophenyl)-4-nitrobenzo[c][1,2,5]oxadiazol-5-amine]",–,0.18 µM,Kd (HIF-2α PAS-B; read-out: ITC Kd): 0.16 µM
"O=[N+]([O-])c1c(Nc2cccc(C(F)(F)F)c2)ccc2nonc12 [Compound 6, 4-nitro-N-(3-(trifluoromethyl)phenyl)benzo[c][1,2,5]oxadiazol-5-amine]",–,0.46 µM,Kd (HIF-2α PAS-B; read-out: ITC Kd): 0.64 µM
"O=[N+]([O-])c1c(Nc2cccc(Cl)c2F)ccc2nonc12 [Compound 8, N-(3-chloro-2-fluorophenyl)-4-nitrobenzo[c][1,2,5]oxadiazol-5-amine]",–,0.76 µM,Kd (HIF-2α PAS-B; read-out: ITC Kd): 1.1 µM
"O=[N+]([O-])c1c(Nc2cc(F)cc(C(F)(F)F)c2)ccc2nonc12 [Compound 10, N-(3-fluoro-5-(trifluoromethyl)phenyl)-4-nitrobenzo[c][1,2,5]oxadiazol-5-amine]",–,0.43 µM,Kd (HIF-2α PAS-B; read-out: ITC Kd): 0.37 µM
"O=[N+]([O-])c1c(Nc2ccc(Cl)c(Cl)c2)ccc2nonc12 [Compound 12, N-(3,4-dichlorophenyl)-4-nitrobenzo[c][1,2,5]oxadiazol-5-amine]",–,0.12 µM,Kd (HIF-2α PAS-B; read-out: ITC Kd): 0.17 µM
O=[N+]([O-])c1c(NCc2ccccc2)ccc2nonc12 [Compound 17],–,> 5 µM,–
O=[N+]([O-])c1cc(Nc2ccc3nonc3c2[N+](=O)[O-])ccc1Cl [Compound 32],–,0.2 µM,Kd (HIF-2α PAS-B; read-out: ITC Kd): 1.1 µM; Effect on HIF-2α/ARNT PAS-B* heterodimerization in AlphaScreen ([1]; triplicate): antagonizes HIF-2α/ARNT PAS-B* heterodimerization; Effect on AlphaScreen signal of control reaction (GST-ARNT-PAS-B*-FLAG): No effect
O=[N+]([O-])c1c(Nc2cc(F)cc(Cl)c2)ccc2[nH]cnc12 [Compound 35],–,> 5 µM,–
"Fc1cc(Br)cc([C@@H]2C[C@H](c3cccc(Br)c3)n3nnnc3N2)c1 [Compound 47, (5S,7R)-5-(3-Bromo-5-fluorophenyl)-7-(3-bromophenyl)-4,5,6,7-tetrahydrotetrazolo[1,5-a]pyrimidine]",0.083 µM,0.1 µM,VEGF protein secretion (VEGF): reduce VEGF protein secretion in a dose-dependent manner
